From PubChem BioAssay (NCI)
Values joined by “and” are separate entries in the source; they are usually repeats but may differ in a detail not shown here. Equal entries are not always repeated.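 Test compounds were applied to cells in 96-well plates for 48 hours at 5 doses. GI50: concentration for 50% inhibition of growth. Definition used: TGI = concentration required for complete inhibition of growth.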

Assays:
Experiment in all cases: NCI-60 cell line screen, 48 h
SF-539 CNS = system: SF-539 CNS
NCI-H23 lung = system: NCI-H23 lung
BT-549 breast = system: BT-549 breast
SK-OV-3 ovarian = system: SK-OV-3 ovarian
PC-3 prostate = system: PC-3 prostate
HCC-2998 colon = system: HCC-2998 colon
HOP-92 NSCLC = system: HOP-92 NSCLC
SR leukemia = system: SR leukemia
SW-620 colon = system: SW-620 colon
LOX IMVI melanoma = system: LOX IMVI melanoma
CCRF-CEM leukemia = system: CCRF-CEM leukemia
UACC-62 melanoma = system: UACC-62 melanoma
DU-145 prostate = system: DU-145 prostate
OVCAR-8 ovarian = system: OVCAR-8 ovarian
NCI-H226 lung = system: NCI-H226 lung
MDA-MB-435 = system: MDA-MB-435
A498 renal = system: A498 renal
MDA-MB-231 breast = system: MDA-MB-231 breast
HCT-116 colon = system: HCT-116 colon
NCI-H522 lung = system: NCI-H522 lung
OVCAR-4 ovarian = system: OVCAR-4 ovarian
EKVX NSCLC = system: EKVX NSCLC
MDA-MB-468 breast = system: MDA-MB-468 breast
COLO 205 colon = system: COLO 205 colon
OVCAR-5 ovarian = system: OVCAR-5 ovarian
CAKI-1 renal = system: CAKI-1 renal
MCF7 breast = system: MCF7 breast
T-47D breast = system: T-47D breast
SF-268 CNS = system: SF-268 CNS
786-0 renal = system: 786-0 renal
HS 578T breast = system: HS 578T breast
SNB-75 CNS = system: SNB-75 CNS
SN12C renal = system: SN12C renal
ACHN renal = system: ACHN renal
M14 melanoma = system: M14 melanoma
SK-MEL-2 melanoma = system: SK-MEL-2 melanoma
RXF 393 renal = system: RXF 393 renal
UO-31 renal = system: UO-31 renal
NCI/ADR-RES ovarian = system: NCI/ADR-RES ovarian
HL-60(TB) leukemia = system: HL-60(TB) leukemia
OVCAR-3 ovarian = system: OVCAR-3 ovarian
RPMI-8226 leukemia = system: RPMI-8226 leukemia
HT29 colon = system: HT29 colon
SK-MEL-28 melanoma = system: SK-MEL-28 melanoma
MALME-3M melanoma = system: MALME-3M melanoma
KM12 colon = system: KM12 colon
K-562 leukemia = system: K-562 leukemia
HOP-62 NSCLC = system: HOP-62 NSCLC
SNB-19 CNS = system: SNB-19 CNS
TK-10 renal = system: TK-10 renal
UACC-257 melanoma = system: UACC-257 melanoma
MOLT-4 leukemia = system: MOLT-4 leukemia
HCT-15 colon = system: HCT-15 colon

COc1cc2cc(C(=O)N3C[C@@H](CCl)c4c3cc(OC(=O)N3CCN(C(=O)CCC(=O)N5CCN(C)CC5)[C@@H]5CSSC[C@@H]53)c3ccccc43)[nH]c2c(OC)c1OC
GI50 (SF-539 CNS): 38.5 nM and 38.9 nM
TGI (SF-539 CNS): 91.3 nM and 151 nM
GI50 (NCI-H23 lung): 10.3 nM and 18.6 nM
TGI (NCI-H23 lung): 50.5 nM and 88.7 nM
GI50 (BT-549 breast): 41 nM and 144 nM
TGI (BT-549 breast): 132 nM and 413 nM
GI50 (SK-OV-3 ovarian): 72.2 nM
TGI (SK-OV-3 ovarian): 374 nM
GI50 (PC-3 prostate): 57.7 nM and 479 nM
TGI (PC-3 prostate): 25000 nM and 10500 nM
GI50 (HCC-2998 colon): 28.7 nM and 54.2 nM
TGI (HCC-2998 colon): 68.5 nM and 188 nM
GI50 (HOP-92 NSCLC): 95.1 nM and 178 nM
TGI (HOP-92 NSCLC): 875 nM and 752 nM
GI50 (SR leukemia): 6.22 nM and 19.5 nM
GI50 (SW-620 colon): 55.5 nM
TGI (SW-620 colon): 25000 nM
GI50 (LOX IMVI melanoma): 37.6 nM and 69.2 nM
TGI (LOX IMVI melanoma): 114 nM and 276 nM
GI50 (CCRF-CEM leukemia): 270 nM
TGI (CCRF-CEM leukemia): > 100000 nM
GI50 (UACC-62 melanoma): 43.6 nM and 136 nM
TGI (UACC-62 melanoma): 158 nM and 324 nM
GI50 (DU-145 prostate): 13.6 nM and 24.5 nM
TGI (DU-145 prostate): 25000 nM and 10200 nM
GI50 (OVCAR-8 ovarian): 42.5 nM
TGI (OVCAR-8 ovarian): 160 nM
GI50 (NCI-H226 lung): 453 nM and 245 nM
TGI (NCI-H226 lung): 1670 nM and 3180 nM
GI50 (MDA-MB-435): 46.6 nM and 147 nM
TGI (MDA-MB-435): 102 nM and 298 nM
GI50 (A498 renal): 122 nM and 218 nM
TGI (A498 renal): 1400 nM and 471 nM
GI50 (MDA-MB-231 breast): 64 nM and 204 nM
TGI (MDA-MB-231 breast): 160 nM and 536 nM
GI50 (HCT-116 colon): 154 nM
TGI (HCT-116 colon): 11600 nM
GI50 (NCI-H522 lung): 43.5 nM and 55.4 nM
TGI (NCI-H522 lung): 114 nM and 364 nM
GI50 (OVCAR-4 ovarian): 86.3 nM
TGI (OVCAR-4 ovarian): 662 nM
GI50 (EKVX NSCLC): 71.7 nM and 207 nM
TGI (EKVX NSCLC): 403 nM and 1380 nM
GI50 (MDA-MB-468 breast): 37.3 nM
TGI (MDA-MB-468 breast): 161 nM
GI50 (COLO 205 colon): 49.4 nM and 145 nM
TGI (COLO 205 colon): 133 nM and 315 nM
GI50 (OVCAR-5 ovarian): 82.8 nM
TGI (OVCAR-5 ovarian): 386 nM
GI50 (CAKI-1 renal): 101 nM and 172 nM
TGI (CAKI-1 renal): 1470 nM and 701 nM
GI50 (MCF7 breast): 14.9 nM
TGI (MCF7 breast): 1590 nM
GI50 (T-47D breast): 118 nM and 229 nM
TGI (T-47D breast): 25000 nM and 19700 nM
GI50 (SF-268 CNS): 58.3 nM
TGI (SF-268 CNS): 608 nM
GI50 (786-0 renal): 49 nM
TGI (786-0 renal): 135 nM
GI50 (HS 578T breast): 266 nM and 292 nM
TGI (HS 578T breast): 1830 nM and 2450 nM
GI50 (SNB-75 CNS): 41.8 nM and 79.8 nM
TGI (SNB-75 CNS): 148 nM and 354 nM
GI50 (SN12C renal): 32.8 nM
TGI (SN12C renal): 7040 nM
GI50 (ACHN renal): 30.5 nM
TGI (ACHN renal): 93.2 nM
GI50 (M14 melanoma): 36.6 nM and 124 nM
TGI (M14 melanoma): 118 nM and 377 nM
GI50 (SK-MEL-2 melanoma): 47.1 nM and 42.8 nM
TGI (SK-MEL-2 melanoma): 93.5 nM and 131 nM
GI50 (RXF 393 renal): 37.4 nM and 34.7 nM
TGI (RXF 393 renal): 74.8 nM and 138 nM
GI50 (UO-31 renal): 75 nM
TGI (UO-31 renal): 2840 nM
GI50 (NCI/ADR-RES ovarian): 64.4 nM
TGI (NCI/ADR-RES ovarian): 268 nM
GI50 (HL-60(TB) leukemia): 53 nM and 48 nM
TGI (HL-60(TB) leukemia): 1090 nM and 2390 nM
GI50 (OVCAR-3 ovarian): 53.9 nM
TGI (OVCAR-3 ovarian): 131 nM
GI50 (RPMI-8226 leukemia): 64.6 nM and 142 nM
TGI (RPMI-8226 leukemia): 2720 nM and 13200 nM
GI50 (HT29 colon): 57.9 nM and 142 nM
GI50 (SK-MEL-28 melanoma): 47.6 nM and 159 nM
TGI (SK-MEL-28 melanoma): 106 nM and 333 nM
GI50 (MALME-3M melanoma): 45.9 nM and 134 nM
TGI (MALME-3M melanoma): 102 nM and 284 nM
GI50 (KM12 colon): 74.7 nM and 131 nM
GI50 (K-562 leukemia): 122 nM and 89.1 nM
TGI (K-562 leukemia): 25000 nM and 9070 nM
GI50 (HOP-62 NSCLC): 41.3 nM
TGI (HOP-62 NSCLC): 231 nM
GI50 (SNB-19 CNS): 34 nM and 90.8 nM
TGI (SNB-19 CNS): 25000 nM and 16000 nM
GI50 (TK-10 renal): 663 nM and 1050 nM
TGI (TK-10 renal): 25000 nM and 22200 nM
GI50 (UACC-257 melanoma): 131 nM and 273 nM
TGI (UACC-257 melanoma): 711 nM and 1430 nM
GI50 (MOLT-4 leukemia): 12.4 nM and 62.8 nM
TGI (MOLT-4 leukemia): 25000 nM and 4720 nM
GI50 (HCT-15 colon): 65.5 nM and 244 nM
TGI (HCT-15 colon): 1070 nM and 10500 nM
